The values that follow come from US11279712B2, “Macrocyclic compounds that inhibit MCL-1 protein” (AMGEN INC., priority 2017, dated 2022).

Like-named read-outs stand apart in the source and are kept apart here. A value given as a limit tells only on which side of the number the result lay.

Assay [1] has as its target Mcl-1/Bim interaction (recombinant human Mcl-1 residues 171-327) (Homo sapiens (Human), UniProt Q07820). The assay can be described thus: Cell Free Mcl-1:Bim Affinity Assay (Mcl-1 HTRF). It counts as binding. To be noted: TR-FRET, 0.1 nM Mcl-1(171-327), 0.05 nM biotin-Bim(51-76). How it is done:
Cell Free Mcl-1:Bim Affinity Assay (Mcl-1 HTRF)
The inhibition of the Mcl-1/Bim interaction was measured using a time-resolved fluorescence resonance energy transfer (TR-FRET) assay. The recombinant human Mcl-1 (C-terminally 6×His tagged Mcl-1 containing residues 171-327) was generated at Amgen Inc (Thousand Oaks, Calif.). A biotinylated peptide derived from human Bim (residues 51-76) was purchased from CPC Scientific (San Jose, Calif.). The TR-FRET assay was conducted in a 384-well white OptiPlate™ (PerkinElmer, Waltham, Mass.) in a total volume of 40 μL. The reaction mixture contained 0.1 nM Mcl-1(171-327), 0.05 nM biotin-Bim(51-76), 0.05 nM LANCES Eu-W1024 Anti-6×His (PerkinElmer), 0.072 nM Streptavidin-Xlent (Cisbio, Bedford, Mass.), and serially diluted test compounds in the binding buffer of 20 mM Hepes, pH 7.5, 150 mM NaCl, 0.016 mM Brij®35, and 1 mM dithiothreitol. Test compounds were pre-incubated with Mcl-1(171-327) and biotin-Bim (51-76) for 60 min before addition of the detection mixture (LANCE® Eu-W1024 Anti-6×His and Streptavidin-Xlent). The reaction plates were further incubated overnight and then were read on an Envision® multimode reader (PerkinElmer). Fluorescence signals were measured at 620 nm (40-nm bandwidth) and 665 nm (7.5-nm bandwidth) with a 60 μs delay after excitation at 320 nm (75-nm bandwidth). The signal ratio at 665/620 nm corresponded to the Mcl-1/Bim interaction and was used in all data analyses. The IC50 values of test compounds were determined from duplicate data by analyzing competition curves using a four-parameter sigmoidal model in GraphPad Prism (GraphPad Software, San Diego, Calif.) or in Genedata Screener® (Genedata, Basel, Switzerland).

The test system of assay [2] is OPM-2 human multiple myeloma cell line. The assay can be described thus: Cell Viability Assay (OPM-2 10 FBS). It counts as cell-based. To be noted: OPM-2 cells, CellTiter-Glo, read-out: OPM-2 10% FBS IC50 IP. The method, then: Cell Viability Assay (OPM-2 10 FBS)
The human multiple myeloma cell line, OPM-2, was cultured in complete growth medium containing RPMI 1640 and 10% fetal bovine serum (FBS). Cells were seeded into 384-well plates at 3000 cells/well density in complete growth medium containing 10% FBS, and incubated for 16 h with serially diluted test compounds in a 37° C. incubator with 5% CO2. Cell viability was tested using CellTiter-Glo® assay (Promega, Madison, Wis.) according to the manufacturer recommendations. Luminescence was determined using an EnVision® Multilabel plate reader 25 min after the addition of detection reagent. IC50 values were then calculated with Xlfit using a logistical 4-parameter fit model in GraphPad Prism (GraphPad Software, San Diego, Calif.) or in Genedata Screener® (Genedata, Basel, Switzerland).
On the technique in general: In ATP-based viability assays light output follows the ATP content of the culture.

Mcl-1/Bim interaction (recombinant human Mcl-1 residues 171-327), sequence (Q07820 171-327): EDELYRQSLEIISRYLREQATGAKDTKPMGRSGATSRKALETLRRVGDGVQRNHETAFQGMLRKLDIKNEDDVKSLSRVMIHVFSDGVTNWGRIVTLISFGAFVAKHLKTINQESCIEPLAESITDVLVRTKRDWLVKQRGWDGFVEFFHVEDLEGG

Consider `CC[C@@H]1CCCC[C@H](CO)[C@@H]2CC[C@H]2CN2C[C@@]3(CCCc4cc(Cl)ccc43)COc3ccc(cc32)C(=O)NS1(=O)=O` (single isomer, unassigned) [Example 71], for which the results for the IC50 in assay [1] and in assay [2] (16 h) were 0.359 nM and 1950 nM, respectively.

In the case of `C[C@H]([C@H]1CCC[C@H](C)[C@@H](C)S(=O)(=O)NC(=O)c2ccc3c(c2)N(C[C@@H]2CC[C@H]21)C[C@@]1(CCCc2cc(Cl)ccc21)CO3)N1CCOCC1` (single isomer, unassigned) [Example 72], the IC50 – broadly, the point on the concentration scale where inhibition reaches its midpoint – in assay [1] was 0.849 nM; in assay [2] (16 h), 1990 nM.

Regarding `C[C@@H]1[C@@H](C)CCC[C@H](C)[C@@H]2CC[C@H]2CN2C[C@@]3(CCCc4cc(Cl)ccc43)COc3ccc(cc32)C(=O)NS1(=O)=O` (single isomer, unassigned) [Example 73], the IC50 in assay [1] stood at 7.41 nM; in assay [2] (16 h), 17000 nM.

Turning to `C[C@@H]1[C@@H](C)CCC[C@H]([C@@H](C)O)[C@@H]2CC[C@H]2CN2C[C@@]3(CCCc4cc(Cl)ccc43)COc3ccc(cc32)C(=O)NS1(=O)=O` (single isomer, unassigned) [Example 74], the values for the IC50 in assay [1] and in assay [2] (16 h) were 3.67 nM and 2040 nM, respectively.

As to `CC[C@@H](O)[C@@H]1/C=C/C[C@H](C)[C@@H](C)S(=O)(=O)NC(=O)c2ccc3c(c2)N(C[C@@H]2CC[C@H]21)C[C@@]1(CCCc2cc(Cl)ccc21)CO3` (single isomer, unassigned) [Example 75], the IC50 in assay [1] is 0.808 nM; in assay [2] (16 h), 2440 nM.

For `C[C@@H]1[C@@H](C)CCC[C@H](C(=O)O)[C@@H]2CC[C@H]2CN2C[C@@]3(CCCc4cc(Cl)ccc43)COc3ccc(cc32)C(=O)NS1(=O)=O` (single isomer, unassigned) [Example 77], the IC50 in assay [1] stood at 0.442 nM; in assay [2] (16 h), 20700 nM.

`C[C@@H]1[C@@H](C)CCC[C@H]([C@H](O)c2ccccc2)[C@@H]2CC[C@H]2CN2C[C@@]3(CCCc4cc(Cl)ccc43)COc3ccc(cc32)C(=O)NS1(=O)=O` (single isomer, unassigned) [Example 78]: the 50% inhibitory concentration (IC50) in assay [1] amounted to 2.36 nM; in assay [2] (16 h), 28300 nM.

As for `C[C@H]([C@H]1CCC[C@H](C)[C@@H](C)S(=O)(=O)NC(=O)c2ccc3c(c2)N(C[C@@H]2CC[C@H]21)C[C@@]1(CCCc2cc(Cl)ccc21)CO3)N1CCOCC1` (single isomer, unassigned) [Example 79], the IC50 in assay [1] came out at 1.59 nM; in assay [2] (16 h) it was 3000 nM.

For `COC[C@H]1CCC[C@H](C)[C@@H](C)S(=O)(=O)NC(=O)c2ccc3c(c2)N(C[C@@H]2CC[C@@H]12)C[C@@]1(CCCc2cc(Cl)ccc21)CO3` (single isomer, unassigned) [Example 80], the IC50 in assay [1] turned out to be 1.6 nM; in assay [2] (Homo sapiens, OPM-2, 16 h), 3510 nM.

Consider `C[C@H]1CCC[C@H](CO)[C@@H]2CC[C@H]2CN2C[C@@]3(CCCc4cc(Cl)ccc43)COc3ccc(cc32)C(=O)NS(=O)(=O)C1` (single isomer, unassigned) [Example 82], for which the values for the IC50 in assay [1] and in assay [2] (16 h) were 0.772 nM and 3650 nM, respectively.

Consider `C[C@@H]1[C@@H](C)CCC[C@H]([C@H](O)C2CCN(C)CC2)[C@@H]2CC[C@H]2CN2C[C@@]3(CCCc4cc(Cl)ccc43)COc3ccc(cc32)C(=O)NS1(=O)=O` (single isomer, unassigned) [Example 83], for which the IC50 in assay [1] was 0.552 nM; in assay [2] (16 h), 4230 nM.

Regarding `C[C@@H]1CS(=O)(=O)NC(=O)c2ccc3c(c2)N(C[C@@H]2CC[C@H]2[C@@H](CO)CC[C@@H]1C)C[C@@]1(CCCc2cc(Cl)ccc21)CO3` (single isomer, unassigned) [Example 84], the IC50 in assay [1] is 3.43 nM; in assay [2] (16 h), 5840 nM.

With `CC[C@@H]1CCCC[C@H](CO)[C@@H]2CC[C@H]2CN2C[C@@]3(CCCc4cc(Cl)ccc43)COc3ccc(cc32)C(=O)NS1(=O)=O` (single isomer, unassigned) [Example 85], the IC50 is 0.676 nM in assay [1] and 7130 nM in assay [2] (16 h).

For the compound `C[C@@H]1[C@@H](C)CCC[C@@H]([C@H](O)C(F)(F)F)[C@@H]2CC[C@H]2CN2C[C@@]3(CCCc4cc(Cl)ccc43)COc3ccc(cc32)C(=O)NS1(=O)=O` (single isomer, unassigned) [Example 86], the IC50 came out at 27.5 nM in assay [1] and 9230 nM in assay [2] (16 h).

In the case of `C[C@@H]1[C@@H](C)CCC[C@@H]([C@@H](O)C(F)(F)F)[C@@H]2CC[C@H]2CN2C[C@@]3(CCCc4cc(Cl)ccc43)COc3ccc(cc32)C(=O)NS1(=O)=O` (single isomer, unassigned) [Example 87], the figures for the IC50 in assay [1] and in assay [2] (16 h) were 13.3 nM and 9890 nM, respectively.

Turning to `C[C@@H]1[C@@H](C)CCC[C@@H]([C@@H](O)c2ccccc2)[C@@H]2CC[C@H]2CN2C[C@@]3(CCCc4cc(Cl)ccc43)COc3ccc(cc32)C(=O)NS1(=O)=O` (single isomer, unassigned) [Example 88], the results for the IC50 in assay [1] and in assay [2] (16 h) were 11.4 nM and > 33300 nM, respectively.

On to `C[C@@H]1[C@@H](C)CCC[C@H](C)[C@@H]2CC[C@H]2CN2C[C@@]3(CCCc4cc(Cl)ccc43)COc3ccc(cc32)C(=O)NS1(=O)=O` (single isomer, unassigned) [Example 89], for which the concentration for half-maximal inhibition (IC50) in assay [1] was 14.2 nM; in assay [2] (16 h) it was > 33300 nM.

For the compound `COCCN1CCN(C[C@H]2CCC[C@H](C)[C@@H](C)S(=O)(=O)NC(=O)c3ccc4c(c3)N(C[C@@H]3CC[C@@H]23)C[C@@]2(CCCc3cc(Cl)ccc32)CO4)CC1=O` (stereo in doubt) [Example 3], the IC50 was 0.257 nM in assay [1] and 166 nM in assay [2] (Homo sapiens, OPM-2, 16 h).

For `C[C@@H]1[C@@H](C)CCC[C@H](CN2CCN3CCOC[C@H]3C2)[C@@H]2CC[C@H]2CN2C[C@@]3(CCCc4cc(Cl)ccc43)COc3ccc(cc32)C(=O)NS1(=O)=O` (stereo in doubt) [Example 14], the IC50 in assay [1] was 0.291 nM; in assay [2] (Homo sapiens, OPM-2, 16 h), 268 nM.

As to `C[C@@H]1[C@@H](C)CCC[C@H](CN2CC(N(C)C)C2)[C@@H]2CC[C@H]2CN2C[C@@]3(CCCc4cc(Cl)ccc43)COc3ccc(cc32)C(=O)NS1(=O)=O` (stereo in doubt) [Example 18], the IC50 in assay [1] is 0.84 nM; in assay [2] (16 h), 289 nM.

`C[C@@H]1[C@@H](C)CCC[C@H](CN2CCN3CCN(S(C)(=O)=O)C[C@@H]3C2)[C@@H]2CC[C@H]2CN2C[C@@]3(CCCc4cc(Cl)ccc43)COc3ccc(cc32)C(=O)NS1(=O)=O` (stereo in doubt) [Example 20]: the IC50 came out at 1.16 nM in assay [1] and 304 nM in assay [2] (Homo sapiens, OPM-2, 16 h).

For the compound `CC(=O)N1CCN2CCN(C[C@H]3CCC[C@H](C)[C@@H](C)S(=O)(=O)NC(=O)c4ccc5c(c4)N(C[C@@H]4CC[C@@H]34)C[C@@]3(CCCc4cc(Cl)ccc43)CO5)C[C@H]2C1` (stereo in doubt) [Example 25], the IC50 came out at 0.252 nM in assay [1] and 329 nM in assay [2] (16 h).

As for `C[C@@H]1[C@@H](C)CCC[C@H](CN2CC(C)(N(C)C)C2)[C@@H]2CC[C@H]2CN2C[C@@]3(CCCc4cc(Cl)ccc43)COc3ccc(cc32)C(=O)NS1(=O)=O` (stereo in doubt) [Example 27], the IC50 in assay [1] turned out to be 0.83 nM; in assay [2] (16 h), 356 nM.

As to `C[C@@H]1[C@@H](C)CCC[C@H](CC(=O)N(C)C)[C@@H]2CC[C@H]2CN2C[C@@]3(CCCc4cc(Cl)ccc43)COc3ccc(cc32)C(=O)NS1(=O)=O` (stereo in doubt) [Example 28], the IC50 in assay [1] came out at 0.287 nM; in assay [2] (Homo sapiens, OPM-2, 16 h), 364 nM.
